Measured values taken from PMC12040169 (PLOS Biology, 2025).

Assay: in vitro
Conditions: human, hela cells, % viability

Row | Structure (SMILES) | viability at 28.5 h, 10 µM
1 | CN(C)CCCNC(=O)c1cc2cc(Cl)cc(Cl)c2oc1=O [CBK269132C] | 90.2%
2 | COc1ccccc1-c1cnc(Nc2ccc(N3CCOCC3)cc2)c2nccn12 [CBK091230] | 99.9%
3 | Cc1cc(NS(=O)(=O)c2ccc(NC(=O)c3cc4ccccc4o3)cc2)no1 [CBK267597] | 88%
4 | COc1ccnc(N2CCN(C(=O)c3c4c(nn3C)CCCC4)CC2)n1 [CBK304609] | 118%
5 | Cc1cc2cccc(NC(=O)NCc3cncn3CC(C)C)c2o1 [CBK306715] | 101%
6 | COc1ccccc1C(=O)N1CCC(Cc2cccc(-c3cccs3)c2)(C(N)=O)CC1 [CBK285742] | 99.8%
7 | CN(C)C(=O)c1ccc(-c2ccc3c(c2)COC(C2CCN(C(=O)CC4CCCCC4)CC2)O3)cc1 (stereo not shown) [CBK149763] | 114%
8 | CN(C)S(=O)(=O)NCCc1ccc(S(N)(=O)=O)cc1 [CBK022388] | 99.5%
9 | Cc1ccc(S(=O)(=O)N(CC(=O)Nc2ccccc2-c2ccccc2)c2cccc(C)c2)cc1 [CBK265988] | 98%
10 | Cc1ccn2c(F)c(C(=O)N3CCCCC3CN3CCOCC3)nc2c1 (stereo not shown) [CBK307028] | 82%
11 | COc1ccccc1-c1cccc(NCC(c2cccnc2)N(C)C)n1 (stereo not shown) [CBK037770] | 103%
12 | O=C(CSc1nnc(-c2cccnc2)n1Cc1ccccc1)NCc1ccccc1 [CBK111647] | 95.7%
13 | CN(CCN1CCCCC1)C(=O)C1CC(=O)Nc2ccccc21 (stereo not shown) [CBK282729] | 105%
14 | CN(C)CCN1CCN(c2nc(-c3occc3C=O)cnc2N)CC1 [CBK063917] | 96.3%
15 | Cc1cccc(NC(=O)CSc2ncnc3sc4c(c23)CCC(C)C4)c1 (stereo not shown) [CBK265738] | 102%
16 | Cc1cccc(Nc2nc3nonc3[nH]/c2=N\N=C/c2cn(Cc3ccc(Cl)cc3Cl)c3ccccc23)c1C [CBK262378] | 93.3%
17 | O=C(Nc1nccs1)C1CCCN(C(=O)c2ccco2)C1 (stereo not shown) [CBK296725] | 98.7%
18 | O=C(NCc1cccs1)c1cncc(-c2ccc(C(=O)N3CCOCC3)cc2)c1 [CBK158617] | 87.4%
19 | O=C(Nc1ccccc1)N[C@H]1CO[C@H]2[C@@H]1OC[C@H]2OCc1ccccc1 [CBK289488] | 109%
20 | CCN(CC(=O)NCc1ccc(Cl)cc1)S(=O)(=O)c1ccc(OC)cc1 [CBK305836] | 92.6%
21 | O=C(NC1CCS(=O)(=O)C1)c1cnc2c(Cl)cccc2c1O (stereo not shown) [CBK304644] | 87.4%
22 | Cc1cc(NC(=O)CSc2nnc(-c3ccccc3)o2)no1 [CBK287389] | 96.2%
23 | Cc1noc(C)c1NC(=O)c1cnc2ccccc2n1 [CBK200220] | 98.1%

Row | Structure (SMILES) | viability at 28.5 h, 10 µM
24 | CCOc1ccccc1NC(=O)CCCN1C(=O)c2ccccc2C1=O [CBK265608] | 107%
25 | COc1ccc(Oc2cncc(OC3CCN(CC(N)=O)C3)n2)cc1OC (stereo not shown) [CBK084402] | 93.8%
26 | CCOC(=O)C1(Cc2ccc(F)cc2F)CCCN(C(C)=O)C1 (stereo not shown) [CBK307516] | 106%
27 | CN1CCN(C(=O)c2ccsc2NS(=O)(=O)c2ccc(-c3ccccc3)cc2)CC1 [CBK042274] | 103%
28 | CN(CC(=O)NCc1ccco1)C1CCCCC1 [CBK304471] | 85.6%
29 | CCSc1c(C)cnc2c1c(=O)n(C)c(=O)n2C [CBK287748] | 99.8%
30 | CC(C)NC(=O)CSc1nc2ccccc2[nH]1 [CBK072235] | 92.9%
31 | CCN(CC)C(=O)Cc1ccc(NC(=O)NCc2cnn(C)c2)cc1 [CBK304918] | 111%
32 | CCC1CCCCN1C(=O)C1CCCCC1 (stereo not shown) [CBK084528] | 90%
33 | Cc1cnc(CNC(=O)c2ccc3nc[nH]c3c2)cn1 [CBK153318] | 88.4%
34 | CNCCOc1ncccc1OCc1ccccc1 [CBK036306] | 100%
35 | COc1ccc(CN2CCC(Cc3ccccc3-c3cccc(F)c3)(C(N)=O)CC2)cc1 [CBK286277] | 99.8%
36 | CC(C)[C@H](CO)Nc1nccnc1-c1ccccc1F [CBK037987] | 106%
37 | Cc1nnc(CSc2ncc(-c3ccc(Cl)cc3)n2Cc2ccccc2)o1 [CBK297154] | 103%
38 | Nc1nonc1C(=O)NCCNCc1cccs1 [CBK267305] | 95.2%
39 | Clc1ccc2c(c1)CCC(NCC1COc3ccccc3O1)C2 (stereo not shown) [CBK013077C] | 97.5%
40 | c1cnc(N2CCNCC2)c(OC2CCCCC2)n1 [CBK001837C] | 92.7%
41 | O=C(NC(c1cccc([N+](=O)[O-])c1)c1cc(Cl)c2cccnc2c1O)c1cccnc1 (stereo not shown) [CBK263987] | 92.5%
42 | NC(=O)C1CCN(C(=O)CN2CCN(Cc3ccccc3)CC2)CC1 [CBK265971C] | 82.8%
43 | CCC(CC)Oc1ccc(C2(C)NC(=O)NC2=O)cc1 (stereo not shown) [CBK288409] | 96.4%
44 | Cc1ccc(C2(CN3CCC(NC(=O)c4cc[nH]n4)CC3)CC2)cc1 [CBK285360] | 97.8%
45 | Cc1cc(C(F)(F)F)nc2sc(C(=O)c3ccc4c(c3)OCO4)c(N)c12 [CBK074388] | 94.5%
46 | OC1CCn2c1nc1cc(Cl)ccc12 (stereo not shown) [CBK113623] | 79.2%

Row | Structure (SMILES) | viability at 28.5 h, 10 µM
47 | CN(C)CCNC(=O)C(=O)Nc1ccc(Cl)cc1 [CBK266965] | 107%
48 | O=C1O[C@@H](CCl)CN1c1ccc(N2CCOCC2)c(F)c1 [CBK017613] | 105%
49 | COc1ccc(C(=O)Nc2ccc(S(=O)(=O)Nc3nccs3)cc2)cc1I [CBK263880] | 92.7%
50 | O=C(O)CCC(NC(=O)c1ccc(-c2ccc(Cl)cc2)s1)C(=O)O (stereo not shown) [CBK295171] | 92.9%
51 | C[C@]12CN(Cc3cccc(C#Cc4ccccc4)c3)C[C@H]1C(=O)Nc1ccccc1C(=O)N2 [CBK286403] | 94.9%
52 | CCCc1cc(O)nc(SC(C)C(=O)N2CCOCC2)n1 (stereo not shown) [CBK305030] | 86%
53 | CCOc1ccc(Cl)cc1CN(C)C(=O)NCc1nccn1C(C)C [CBK307111] | 101%
54 | COC(=O)c1cc(C)sc1NC(=S)Nc1ccccc1[N+](=O)[O-] [CBK267047] | 99.9%
55 | CN1CCN(CCC(=O)Nc2ccc(Cl)c(C(F)(F)F)c2)CC1 [CBK265995] | 89.9%
56 | Sc1nnnn1-c1ccccc1 [CBK022881G] | 99.9%
57 | Cc1cc(CNC(=O)C2(c3ccccc3)CCCC2)no1 [CBK149518] | 103%
58 | O=C(CC1(O)C(=O)Nc2ccccc21)CC1(O)C(=O)Nc2ccccc21 (stereo not shown) [CBK263705] | 93.1%
59 | COc1ccc(CCC(C)N2CCN(c3ccc(F)cc3)CC2)cc1 (stereo not shown) [CBK261922] | 103%
60 | Cc1ccc2[nH]c(Cc3ccc(NC(=O)CCc4nc5ccccc5[nH]4)cc3)nc2c1 [CBK285801] | 87%
61 | CC(=O)c1ccc(NC(=O)c2cccc(S(=O)(=O)N3CCCCC3)c2)cc1 [CBK263246] | 96.4%
62 | O=S(=O)(Nc1nnn[nH]1)c1ccc(N2CCOCC2)nc1 [CBK062385] | 99%
63 | O=C(Nc1ccc2[nH]ccc2c1)N1CCCC(CO)C1 (stereo not shown) [CBK156044] | 86.8%
64 | Cc1c(CN(C)C(=O)c2cccc(NC(=O)C3CCCO3)c2)cnn1C (stereo not shown) [CBK305416] | 103%
65 | Fc1ccc(CCNc2ccc3nncn3n2)cc1 [CBK287909] | 88.2%
66 | Cc1cc2c(o1)c1cnn(CC(=O)N(C(C)C)C(C)C)c(=O)c1n2C [CBK282392] | 83.2%
67 | CCCS(=O)(=O)N1CCC(C(=O)NCc2ccc(Cl)cc2Cl)CC1 [CBK305559] | 102%
68 | Cc1ccc2oc(C(=O)N(CCO)CCc3ccncc3)c(C)c2c1 [CBK281642] | 106%
69 | COc1ccc(N2CCN(c3cc(-c4cccc5ccccc45)ncn3)CC2)cc1OC [CBK091022] | 43.4%

Row | Structure (SMILES) | viability at 28.5 h, 10 µM
70 | Cc1ccc(C(=O)N2CC(=O)N(CCO)C2)cc1 [CBK045864] | 110%
71 | O=C(C1CC1)N1CCC(c2nc(Cc3cccs3)no2)C1 (stereo not shown) [CBK282980] | 89.6%
72 | CCCN1CC(NS(=O)(=O)c2cc(-n3cccn3)ccc2OC)CC1=O (stereo not shown) [CBK307285] | 107%
73 | CC(=O)Nc1cc(I)cc(C(=O)O)c1 [CBK026452G] | 104%
74 | Cc1cc(C)n2ncc(C(=O)NCC(c3cccs3)N3CCCC3)c2n1 (stereo not shown) [CBK305675] | 85.3%
75 | Cc1cccc(-n2nc3c4nonc4ccc3[n+]2[O-])c1C [CBK264626] | 93.6%
76 | C#CCN1CC[C@]2(c3ccc(OC)c(OC)c3)CC[C@@H](NC(=O)Nc3ccc(F)c(F)c3)C[C@H]12 [CBK056657] | 104%
77 | Cc1sc2nc(SCc3cc(O)[nH]n3)nc(N)c2c1C [CBK264585] | 88.6%
78 | Cc1cccc(C(=O)Oc2ccc(-n3ccnc3)cc2)c1 [CBK090137] | 101%
79 | COC(=O)c1ccccc1NC(=O)CC1Sc2ccccc2NC1=O (stereo not shown) [CBK269400] | 90.2%
80 | O=C(NCCO)c1nc(NCCO)c2ccccc2n1 [CBK267239] | 110%
81 | COc1ccc(-c2nccnc2N[C@@H](CO)C(C)C)cc1 [CBK089040] | 98.5%
82 | Cc1ccc(C)c(NC(=O)CCc2c(C)nn3cnnc3c2C)c1 [CBK304358] | 90%
83 | CCCn1c(SC(C)C(=O)N2CCOCC2)nc2ccc(Br)cc2c1=O (stereo not shown) [CBK305020] | 92.2%
84 | CCOc1cc(S(=O)(=O)NCCCN2CCOCC2)c(C)cc1C [CBK268764] | 99%
85 | Cc1ccc(-c2nccnc2OCCN2C(=O)c3ccccc3C2=O)c(C)c1 [CBK106981] | 90%
86 | COC(=O)[C@H](CC1CCCCC1)NS(=O)(=O)c1ccc(C(C)C)cc1 [CBK044551] | 96.3%
87 | O/N=C1\CSCc2ncccc21 [CBK007234] | 90.1%
88 | CC(=O)N(C)c1ncc(Br)cc1C(=O)NCc1ccc2c(c1)CCO2 [CBK076544] | 93.5%
89 | O=S(=O)(/N=C(/Nc1nccs1)c1ccccc1)c1cccs1 [CBK268709] | 83.8%
90 | CCc1nn(CC(=O)N2CCCCC2)c(=O)c2cc3oc(C)cc3n12 [CBK283575] | 104%
91 | COc1ccc(S(=O)(=O)NCCSCc2cccc(C)c2)cc1Cl [CBK268477] | 100%
